From ChEMBL document CHEMBL1151992, “Arenamides A-C, cytotoxic NFkappaB inhibitors from the marine actinomycete Salinispora arenicola” (J Nat Prod, 2009)
≈ marks a conversion by molar mass, not a printed value. Calls of active or inactive are those of the source. The rule behind the calls is not given here.

Experiments:
Candida albicans = assay: Antimicrobial activity against amphotericin-resistant Candida albicans; type: functional, organism-based
Staphylococcus aureus = assay: Antimicrobial activity against methicillin-resistant Staphylococcus aureus; type: functional, organism-based
Enterococcus faecium = assay: Antimicrobial activity against vancomycin-resistant Enterococcus faecium; type: functional, organism-based
RAW264.7 [1] = assay: Antiinflammatory activity in mouse RAW264.7 cells assessed as inhibition of LPS-stimulated nitric oxide production treated 30 mins prior to LPS challenge measured after 24 hrs by Griess reagent method; type: functional, cell-based
[2] = Inhibition of TNF-induced NF-kappaB activation transfected in HEK293 cells by luciferase reporter gene assay; type: cell-based
HCT-116 = assay: Cytotoxicity against human HCT116 cells; type: functional, cell-based
RAW264.7 [3] = assay: Antiinflammatory activity in mouse RAW264.7 cells assessed as inhibition of LPS-stimulated nitric oxide production at 3 to 10 uM treated 30 mins prior to LPS challenge measured after 24 hrs by Griess reagent method; type: functional; parameters: scale not given: the % may be the effect or the level left
RAW264.7 [4] = assay: Antiinflammatory activity in mouse RAW264.7 cells assessed as inhibition of LPS-stimulated PGE2 production at 3 to 10 uM treated 30 mins prior to LPS challenge measured after 24 hrs by ELISA; type: functional; parameters: scale not given: the % may be the effect or the level left
RAW264.7 [5] = assay: Cytotoxicity against mouse RAW264.7 cells at 3 to 10 uM by sulforhodamine B assay; type: cell-based; details: raw264.7, 10 µM

With CCCCCC[C@@H](C)[C@H](O)CC(=O)NCC(=O)N[C@H](C(=O)C[C@@H](CC(C)C)C(=O)N[C@@H](C)C(=O)N[C@@H](Cc1ccccc1)C(=O)OC)C(C)C the Activity (Candida albicans) was “inactive”, the Activity (Staphylococcus aureus) was “inactive” and the Activity (Enterococcus faecium) was “inactive”.
In the case of CCCCCC[C@H](C)[C@@H]1CC(=O)NCC(=O)N[C@@H](C(C)C)C(=O)N[C@@H](CC(C)C)C(=O)N[C@@H](C)C(=O)N[C@@H](CCSC)C(=O)O1, the Activity (Candida albicans) is reported as “inactive”, the Activity (Staphylococcus aureus) is reported as “inactive” and the Activity (Enterococcus faecium) is reported as “inactive”.
With CCCCCC[C@H](C)[C@@H]1CC(=O)NCC(=O)N[C@@H](C(C)C)C(=O)N[C@@H](CC(C)C)C(=O)N[C@@H](C)C(=O)N[C@@H](Cc2ccccc2)C(=O)O1 [ARENAMIDE A] the Activity (RAW264.7 [1]) was “Dose-dependent effect”, the IC50 [2] was 3700 nM and the Activity (Candida albicans) was “inactive”. It also gave an IC50 (HCT-116) of 13.2 µg/mL (≈ 19.6 µM), an Activity (RAW264.7 [3]) of 35% and an Activity (RAW264.7 [4]) of 50%. For the same molecule, the Activity (Staphylococcus aureus) was “inactive”, the Activity (Enterococcus faecium) was “inactive” and the Activity (RAW264.7 [5]) was “Non-toxic”.
For CCCC[C@H](C)[C@@H]1CC(=O)NCC(=O)N[C@@H](C(C)C)C(=O)N[C@@H](CC(C)C)C(=O)N[C@@H](C)C(=O)N[C@@H](Cc2ccccc2)C(=O)O1 [ARENAMIDE B], the Activity (RAW264.7 [1]) was “Dose-dependent effect”, the IC50 [2] was 1700 nM and the Activity (Candida albicans) was “inactive”. It also gave an IC50 (HCT-116) of 19.2 µg/mL (≈ 29.8 µM), an Activity (RAW264.7 [3]) of 35% and an Activity (RAW264.7 [4]) of 50%. The Activity (Staphylococcus aureus) was “inactive”, the Activity (Enterococcus faecium) was “inactive” and the Activity (RAW264.7 [5]) was “Non-toxic”.
